ChEMBL document CHEMBL1201862, “PubChem BioAssay data set” (2004)
Activity calls are given as the source filed them.

How the values were obtained:
[1] = Dd2 malaria parasite growth inhibition potency – SYBR Green, dry powder samples, dose response (AID 1159566); type: functional, cell-based;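 further: potency for growth inhibition with lower SYBR green DNA signal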
[2] = growth inhibition of yeast DHODH-expressing 3D7 parasites – SYBR Green, dry powder samples, dose response (AID 1159570); type: functional, cell-based;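 further: parasite growth measured after 72 hours of compound exposure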
[3] = P. falciparum Dd2 growth inhibitors, dose response, SYBR Green, cherry-picked samples (AID 1159567); type: functional, cell-based
[4] = Plasmodium falciparum Dd2 Sybr green parasite growth Measured in Cell-Based and Microorganism Combination System Using Plate Reader - 2153-01_Inhibitor_Dose_DryPowder_Activity_Set3.; type: functional
[5] = growth inhibition of PfATP4-mutant resistant parasites – NITD609-resistant line, SYBR Green, dry powder, dose response (AID 1159571); type: functional, cell-based;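 further: parasites synchronized at ring stage by sorbitol before testing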
[6] = toxicity to human HepG2 hepatoma cells – cell-based, plate reader, dry powder samples, cytotoxicity control, dose response (AID 1159569); type: functional;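 further: inhibitor potency with signal falling toward the positive control level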
[7] = molecular target: Voltage-dependent T-type calcium channel subunit alpha-1H (Homo sapiens, UniProt O95180); type: functional;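 further: channel activity triggered by adding a high calcium stimulation buffer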
[8] = molecular target: T1, RNA-binding protein pos-1 (Caenorhabditis elegans, UniProt G5EF15); test: disruptors of C. elegans POS-1 RNA interaction – biochemical, fluorescence polarization, dose response (AID 1964);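 further: purified POS-1 fused to maltose binding protein made in E. coli; potency of compounds blocking POS-1 binding to fluorescent RNA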
T1 sequence (G5EF15 whole entry): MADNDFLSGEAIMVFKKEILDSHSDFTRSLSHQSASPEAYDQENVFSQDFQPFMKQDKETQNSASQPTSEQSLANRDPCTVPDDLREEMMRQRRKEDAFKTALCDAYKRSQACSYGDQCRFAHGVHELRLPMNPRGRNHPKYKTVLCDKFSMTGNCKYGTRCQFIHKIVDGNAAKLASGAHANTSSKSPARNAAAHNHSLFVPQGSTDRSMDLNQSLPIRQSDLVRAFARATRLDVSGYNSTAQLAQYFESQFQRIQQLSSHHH

[9] = molecular target: T2, Zinc finger protein mex-5 (Caenorhabditis elegans, UniProt Q9XUB2); test: potency of MEX-5 RNA-binding blockers – biochemical, C. elegans, fluorescence polarization, dose response (AID 1960)
T2 sequence (Q9XUB2 whole entry): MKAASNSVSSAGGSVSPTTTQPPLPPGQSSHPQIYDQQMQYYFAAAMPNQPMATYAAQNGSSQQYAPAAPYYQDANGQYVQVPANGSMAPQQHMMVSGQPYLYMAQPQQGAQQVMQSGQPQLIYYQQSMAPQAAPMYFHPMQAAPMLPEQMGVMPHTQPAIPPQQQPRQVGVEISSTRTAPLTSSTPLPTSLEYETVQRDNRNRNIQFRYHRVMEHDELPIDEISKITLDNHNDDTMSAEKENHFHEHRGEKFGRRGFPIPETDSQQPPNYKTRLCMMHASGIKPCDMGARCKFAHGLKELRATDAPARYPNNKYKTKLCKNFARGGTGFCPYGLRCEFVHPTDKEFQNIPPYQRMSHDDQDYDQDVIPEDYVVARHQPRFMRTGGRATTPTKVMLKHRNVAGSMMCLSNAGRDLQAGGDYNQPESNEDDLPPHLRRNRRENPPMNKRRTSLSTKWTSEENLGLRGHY

[10] = molecular target: Ephrin type-A receptor 4 (Mus musculus, UniProt Q03137); test: EphA4 ligand-binding antagonists – biochemical, colorimetric, mouse EphA4, primary screen (AID 689); type: functional
[11] = cells
[12] = cells; type: functional
[13] = Vero E6 cell cytotoxicity, dose response, cytotoxicity control for non-replicating M. tuberculosis project, secondary assay (AID 492998); type: functional, VeroE6; conditions: Vero C1008
[14] = tested on: Vero; test: mammalian cell viability reduction – secondary assay, cytotoxicity control for West Nile virus antiviral project, dose response (AID 1650); type: functional; conditions: Chlorocebus sabaeus
[15] = THP-1 cell cytotoxicity, dose response, cytotoxicity control for non-replicating M. tuberculosis project (AID 489025); type: functional
[16] = viability of uninfected HEp-2 cells – cell-based, HTS, cytotoxicity control for RSV inhibitor project, dose response (AID 2410); type: functional; conditions: human respiratory syncytial virus
[17] = molecular target: T3, Dual specificity protein phosphatase 6 (Rattus norvegicus, UniProt Q64346); test: inhibition of rat DUSP6 enzyme activity – biochemical, in vitro, primary screen (AID 425)
T3 sequence (Q64346 whole entry): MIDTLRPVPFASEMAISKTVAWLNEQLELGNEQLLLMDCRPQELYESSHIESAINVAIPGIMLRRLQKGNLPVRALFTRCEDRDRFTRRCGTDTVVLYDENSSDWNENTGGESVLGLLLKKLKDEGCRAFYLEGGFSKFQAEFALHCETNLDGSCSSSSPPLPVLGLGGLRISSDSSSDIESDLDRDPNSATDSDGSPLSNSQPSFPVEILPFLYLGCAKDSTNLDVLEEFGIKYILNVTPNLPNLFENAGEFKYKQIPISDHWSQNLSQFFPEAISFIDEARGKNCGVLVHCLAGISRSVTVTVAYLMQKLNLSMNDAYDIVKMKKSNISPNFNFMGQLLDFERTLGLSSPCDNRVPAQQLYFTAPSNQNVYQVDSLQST

[18] = molecular target: T4, Bcl-2-related protein A1 (Mus musculus, UniProt Q07440); test: displacement of Bid BH3 peptide from Bfl-1 – biochemical, fluorescence polarization, FITC-Bid, mouse, primary screen (AID 432)
T4 sequence (Q07440 whole entry): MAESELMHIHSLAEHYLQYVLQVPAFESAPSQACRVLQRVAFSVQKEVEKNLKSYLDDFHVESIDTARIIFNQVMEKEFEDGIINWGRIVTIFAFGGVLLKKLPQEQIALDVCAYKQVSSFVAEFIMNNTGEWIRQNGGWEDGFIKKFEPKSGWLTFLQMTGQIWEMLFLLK

[19] = molecular target: DNA dC->dU-editing enzyme APOBEC-3A (Homo sapiens, UniProt P31941); test: Dose Response confirmation of small molecule APOBEC3A DNA Deaminase Inhibitors via a fluorescence-based single-stranded DNA deaminase assay. [Related pubchem assays (depositor defined):AID493011, AID493024]; type: functional
[20] = molecular target: DNA dC->dU-editing enzyme APOBEC-3G (Homo sapiens, UniProt Q9HC16); type: functional;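 further: Dose-response counterscreen measuring inhibition of APOBEC3G DNA deaminase activity, run while confirming APOBEC3A inhibitors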
[21] = molecular target: T5, Bcl-2-like protein 10 (Homo sapiens, UniProt Q9HD36); test: Bcl-B/TR3 peptide binding disruption – biochemical, fluorescence polarization, FITC-TR3 peptide, selectivity assay for Bfl-1 inhibitor project, primary screen (AID 748);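 further: fluorescence polarization from a fluorescein-labelled TR3 peptide binding purified Bcl-B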
T5 sequence (Q9HD36 whole entry): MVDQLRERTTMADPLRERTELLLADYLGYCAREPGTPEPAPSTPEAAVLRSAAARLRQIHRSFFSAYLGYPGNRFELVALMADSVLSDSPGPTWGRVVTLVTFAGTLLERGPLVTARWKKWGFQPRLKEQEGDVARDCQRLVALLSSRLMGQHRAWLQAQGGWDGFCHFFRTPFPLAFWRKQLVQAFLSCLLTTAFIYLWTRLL

[22] = molecular target: T6, Tyrosine-protein phosphatase non-receptor type 7 (Homo sapiens, UniProt P35236); test: HePTP tyrosine phosphatase activity blockers – biochemical, absorbance, leukemia target, primary screen (AID 521); type: functional
T6 sequence (P35236 whole entry): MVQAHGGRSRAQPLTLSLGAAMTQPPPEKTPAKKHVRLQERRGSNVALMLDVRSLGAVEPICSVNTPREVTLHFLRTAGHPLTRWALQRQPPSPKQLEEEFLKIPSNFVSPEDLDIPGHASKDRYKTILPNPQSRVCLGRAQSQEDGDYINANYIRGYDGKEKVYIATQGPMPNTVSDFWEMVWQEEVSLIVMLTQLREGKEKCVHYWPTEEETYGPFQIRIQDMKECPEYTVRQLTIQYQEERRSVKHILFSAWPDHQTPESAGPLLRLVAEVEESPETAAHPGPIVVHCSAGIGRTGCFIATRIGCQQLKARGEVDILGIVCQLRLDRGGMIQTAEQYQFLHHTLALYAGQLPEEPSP

[23] = Luminescence Cell-Based Dose Response HTS to Identify Inhibitors of 5'UTR Stem-Loop Driven Prion Protein mRNA Translation in H4 Neuroglioblastoma Cells. [Related pubchem assays: 1827 (Project Summary), 1813 (Primary HTS)]; type: functional
[24] = alpha-synuclein stem-loop luciferase translation blockers – H4 neuroglioma cells, luminescence, confirmation (AID 1988); type: functional, cell-based
[25] = luciferase reporter signal suppression in cells – H4 neuroglioma cells, luminescence, dose response (AID 1990); type: functional, cell-based
[26] = molecular target: Cytochrome P450 2C9 (Homo sapiens, UniProt P11712)
[27] = tested on: HEK293; test: cells; conditions: Homo sapiens
[28] = molecular target: Peroxisome proliferator-activated receptor gamma/Nuclear receptor corepressor 2 (Homo sapiens, UniProt P37231+Q9Y618); test: Counterscreen for NR2E3 inverse agonists: TR-FRET-based biochemical high throughput dose response assay to identify inverse agonists of the interaction between peroxisome proliferator-activated receptor gamma (PPARg) and nuclear receptor co-repressor 2 (NCOR2).; type: functional
[29] = molecular target: Cytochrome P450 2C19 (Homo sapiens, UniProt P33261); test: Cytochrome panel assay with activity outcomes. Panel member name: p450-cyp2c19 Compounds with AC50 equal or less than 10 uM are considered active; type: functional; conditions: read-out: AC50
[30] = molecular target: Cytochrome P450 3A4 (Homo sapiens, UniProt P08684);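 further: CYP3A4 tested as one member of a cytochrome P450 panel screen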
[31] = molecular target: Photoreceptor-specific nuclear receptor (Homo sapiens, UniProt Q9Y5X4); test: ligands suppressing NR2E3 nuclear receptor activity – biochemical, TR-FRET, dose response (AID 463256); type: functional
[32] = tested on: HEK293; test: cells; conditions: Homo sapiens; remark: listed apart in the source

Sequence of Photoreceptor-specific nuclear receptor (Q9Y5X4 whole entry): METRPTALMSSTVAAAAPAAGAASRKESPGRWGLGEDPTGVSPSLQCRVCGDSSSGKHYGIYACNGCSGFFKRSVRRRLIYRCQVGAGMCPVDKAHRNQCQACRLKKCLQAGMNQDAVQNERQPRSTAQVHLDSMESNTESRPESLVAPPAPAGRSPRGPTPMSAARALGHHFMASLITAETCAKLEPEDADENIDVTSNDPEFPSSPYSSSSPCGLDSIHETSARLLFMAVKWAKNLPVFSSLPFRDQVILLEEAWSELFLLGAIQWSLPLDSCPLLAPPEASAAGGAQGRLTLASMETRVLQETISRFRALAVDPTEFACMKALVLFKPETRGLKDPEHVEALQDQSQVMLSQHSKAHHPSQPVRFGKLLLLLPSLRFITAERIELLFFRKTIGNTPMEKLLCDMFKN
Sequence of Ephrin type-A receptor 4 (Q03137 whole entry): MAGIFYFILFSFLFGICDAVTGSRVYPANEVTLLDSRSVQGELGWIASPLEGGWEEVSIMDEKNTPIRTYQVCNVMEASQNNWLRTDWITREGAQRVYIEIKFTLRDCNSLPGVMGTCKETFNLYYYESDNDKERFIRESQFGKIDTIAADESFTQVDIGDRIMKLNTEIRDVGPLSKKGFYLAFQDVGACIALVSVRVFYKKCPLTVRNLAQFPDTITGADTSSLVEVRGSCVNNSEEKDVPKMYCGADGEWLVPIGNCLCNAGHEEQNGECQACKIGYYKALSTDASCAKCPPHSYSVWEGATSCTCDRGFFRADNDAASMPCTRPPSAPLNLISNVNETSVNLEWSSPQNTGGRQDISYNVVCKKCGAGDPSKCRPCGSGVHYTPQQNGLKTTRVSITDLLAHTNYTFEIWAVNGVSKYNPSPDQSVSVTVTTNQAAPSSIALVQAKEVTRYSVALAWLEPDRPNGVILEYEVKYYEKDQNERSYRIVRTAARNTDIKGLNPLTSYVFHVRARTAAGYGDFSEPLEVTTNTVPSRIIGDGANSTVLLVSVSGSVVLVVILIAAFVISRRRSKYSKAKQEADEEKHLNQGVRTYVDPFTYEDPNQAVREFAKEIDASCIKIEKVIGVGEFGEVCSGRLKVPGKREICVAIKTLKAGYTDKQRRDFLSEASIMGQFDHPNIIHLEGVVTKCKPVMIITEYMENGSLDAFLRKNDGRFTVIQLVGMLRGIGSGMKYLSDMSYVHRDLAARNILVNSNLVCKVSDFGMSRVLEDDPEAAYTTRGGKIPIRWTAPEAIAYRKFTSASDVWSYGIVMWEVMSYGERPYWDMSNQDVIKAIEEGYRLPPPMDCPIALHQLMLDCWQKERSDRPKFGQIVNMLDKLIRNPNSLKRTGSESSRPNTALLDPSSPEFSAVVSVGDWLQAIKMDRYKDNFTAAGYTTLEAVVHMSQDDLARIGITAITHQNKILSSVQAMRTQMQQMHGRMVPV
Sequence of Cytochrome P450 2C19 (P33261 whole entry): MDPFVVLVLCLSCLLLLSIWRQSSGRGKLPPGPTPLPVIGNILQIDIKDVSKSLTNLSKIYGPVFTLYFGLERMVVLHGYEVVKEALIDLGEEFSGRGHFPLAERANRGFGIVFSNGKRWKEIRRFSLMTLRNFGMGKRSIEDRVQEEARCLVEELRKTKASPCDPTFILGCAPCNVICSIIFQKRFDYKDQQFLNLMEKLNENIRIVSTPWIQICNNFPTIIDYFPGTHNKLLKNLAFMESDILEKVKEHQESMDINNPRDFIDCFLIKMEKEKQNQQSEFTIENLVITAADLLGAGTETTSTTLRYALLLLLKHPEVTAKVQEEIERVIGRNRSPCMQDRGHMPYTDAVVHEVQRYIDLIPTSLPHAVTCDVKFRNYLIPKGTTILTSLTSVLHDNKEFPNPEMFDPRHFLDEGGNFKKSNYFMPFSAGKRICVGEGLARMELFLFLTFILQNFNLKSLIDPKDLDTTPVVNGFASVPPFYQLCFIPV
Sequence of Cytochrome P450 2C9 (P11712 whole entry): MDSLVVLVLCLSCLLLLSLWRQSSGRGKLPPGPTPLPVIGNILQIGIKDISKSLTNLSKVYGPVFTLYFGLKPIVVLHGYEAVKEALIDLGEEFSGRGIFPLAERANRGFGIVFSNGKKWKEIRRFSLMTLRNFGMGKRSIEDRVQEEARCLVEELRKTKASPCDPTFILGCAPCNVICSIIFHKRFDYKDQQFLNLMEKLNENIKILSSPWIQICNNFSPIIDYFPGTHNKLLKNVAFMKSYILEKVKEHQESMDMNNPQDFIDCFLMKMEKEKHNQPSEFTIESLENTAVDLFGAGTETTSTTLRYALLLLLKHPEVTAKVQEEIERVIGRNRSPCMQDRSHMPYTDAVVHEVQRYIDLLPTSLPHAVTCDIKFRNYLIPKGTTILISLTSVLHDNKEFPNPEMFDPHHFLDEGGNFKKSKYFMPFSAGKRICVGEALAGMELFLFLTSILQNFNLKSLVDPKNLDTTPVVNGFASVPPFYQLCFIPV
Sequence of DNA dC->dU-editing enzyme APOBEC-3G (Q9HC16 whole entry): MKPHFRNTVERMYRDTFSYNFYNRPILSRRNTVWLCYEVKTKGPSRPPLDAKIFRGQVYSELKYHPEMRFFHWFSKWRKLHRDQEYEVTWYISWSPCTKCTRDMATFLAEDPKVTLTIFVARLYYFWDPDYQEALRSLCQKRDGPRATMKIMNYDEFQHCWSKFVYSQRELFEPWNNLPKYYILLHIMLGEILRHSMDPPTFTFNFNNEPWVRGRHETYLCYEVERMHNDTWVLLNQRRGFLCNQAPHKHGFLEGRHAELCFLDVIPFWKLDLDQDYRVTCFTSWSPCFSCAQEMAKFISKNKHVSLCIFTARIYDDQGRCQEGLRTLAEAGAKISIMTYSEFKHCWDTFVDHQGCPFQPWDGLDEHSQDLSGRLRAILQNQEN
Sequence of DNA dC->dU-editing enzyme APOBEC-3A (P31941 whole entry): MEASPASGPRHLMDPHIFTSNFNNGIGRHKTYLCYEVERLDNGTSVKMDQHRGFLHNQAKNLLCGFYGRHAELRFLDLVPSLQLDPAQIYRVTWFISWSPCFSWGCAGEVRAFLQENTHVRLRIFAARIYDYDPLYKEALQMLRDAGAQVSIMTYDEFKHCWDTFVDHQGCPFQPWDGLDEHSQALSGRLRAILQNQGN
Sequence of Cytochrome P450 3A4 (P08684 whole entry): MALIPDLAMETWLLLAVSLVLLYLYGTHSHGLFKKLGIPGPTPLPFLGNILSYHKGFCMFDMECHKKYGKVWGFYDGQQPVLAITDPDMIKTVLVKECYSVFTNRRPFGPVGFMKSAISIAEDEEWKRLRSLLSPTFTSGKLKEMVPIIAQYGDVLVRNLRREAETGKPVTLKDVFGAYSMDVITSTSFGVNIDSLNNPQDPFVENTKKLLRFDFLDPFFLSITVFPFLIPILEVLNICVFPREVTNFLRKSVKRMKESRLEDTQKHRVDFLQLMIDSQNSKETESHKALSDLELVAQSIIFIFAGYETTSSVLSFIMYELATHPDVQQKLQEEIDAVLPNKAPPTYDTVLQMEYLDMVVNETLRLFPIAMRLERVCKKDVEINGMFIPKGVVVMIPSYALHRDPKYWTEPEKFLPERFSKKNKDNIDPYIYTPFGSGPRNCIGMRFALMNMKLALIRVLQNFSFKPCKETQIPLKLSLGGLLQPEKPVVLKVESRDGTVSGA

For C/C=C/c1ccc([C@H]2[C@@H](C#N)N(C(=O)NC3CCCC3)[C@@H]2CO)cc1, the AC50 [1] was 0.4 µM (active), the AC50 [2] was 15.4 µM (active) and the AC50 [3] was 1.02 µM (active). For the same molecule, the AC50 [4] was 0.719 µM (active) and the AC50 [5] was 0.626 µM (active).

With CO[C@@H]1CN(C)C(=O)c2ccc(NC(=O)C3CC3)cc2OC[C@@H](C)N(Cc2cccc(F)c2)C[C@H]1C the AC50 [1] was 0.664 µM (active), the AC50 [6] was > 100 µM (inactive) and the AC50 [2] was 6.86 µM (active). The AC50 [3] was 2.98 µM (active), the AC50 [4] was 4.29 µM (active) and the AC50 [5] was 3.64 µM (active).

In the case of Cc1ccc2cc(/C=C3\N=C(c4ccccc4)OC3=O)c(N3CCOCC3)nc2c1, the EC50 [7] is reported as 10.8 µM (active), the EC50 [8] is reported as > 300 µM (not active) and the EC50 [9] is reported as > 300 µM (inconclusive). For the same molecule, the IC50 [10] was 1.54 µM (active).

With c1ccc(N2CCN(Cc3nc4ccccc4[nH]3)CC2)nc1 [ABT-724] the IC50 [11] was 24 µM (active).

With NCCOc1ccc(C23CC4CC(CC(C4)C2)C3)cc1 the IC50 [12] was 23.4 µM (active), the CC50 [13] was > 20 µM (active) and the CC50 [14] was 10.7 µM (active). For the same molecule, the CC50 [15] was 11.4 µM (active) and the CC50 [16] was 13.1 µM (active).

For CCn1c(SCC(=O)O)nc2sc3c(c2c1=O)CCC3, the IC50 [17] was > 10 µM (not active), the IC50 [18] was 14.5 µM (active) and the IC50 [19] was 17.5 µM (active). The IC50 [20] was 40.8 µM (active), the IC50 [21] was 8.5 µM (active) and the IC50 [22] was 1.29 µM (active).

In the case of O=C(Nc1ccc(O)c2c(=O)cc(-c3cccc(Cl)c3)oc12)c1cccc(Cl)c1, the CC50 [14] is reported as 0.83 µM (active), the EC50 [23] is reported as > 120 µM (not active) and the EC50 [24] is reported as 10.2 µM (active). The EC50 [25] was > 120 µM (not active).

With CCOc1ccc(C(=O)Nc2ccc(NC(=O)c3ccco3)c(Cl)c2)cc1Br the AC50 [26] was 0.562 µM (inconclusive), the EC50 [27] was > 59.7 µM (inactive) and the IC50 [28] was > 39.8 µM (not active). For the same molecule, the AC50 [29] was 0.398 µM (inconclusive), the AC50 [30] was 22.4 µM (inconclusive) and the IC50 [31] was > 39.8 µM (not active). For the same molecule, the EC50 [32] was > 59.7 µM (inactive).
